In series [1] the test system is Staphylococcus aureus. Description: Antimicrobial activity against methicillin-resistant Staphylococcus aureus infected in New Zealand rabbit osteomyelitis model assessed as improvement in extent of bone remodeling at 60 mg/kg, po administered every 8 hrs for 4 weeks measured on week 6 postinfection radiographic analysis. Type of series: functional, organism-based. Details: dose 60 mg/kg.

For series [2], the system named is Oryctolagus cuniculus. Description: Toxicity in methicillin-resistant Staphylococcus aureus-infected New Zealand rabbit osteomyelitis model assessed as body weight at 60 mg/kg, po administered every 8 hrs for 4 weeks measured on week 2 postinfection (reference value: 2.43 +/- 0.15 kg). The conditions noted are these: in vivo.
Series [3] relates to Staphylococcus aureus. The series is described as follows: Antimicrobial activity against methicillin-resistant Staphylococcus aureus infected in New Zealand rabbit osteomyelitis model assessed as improvement in rate of bone reconstruction at 60 mg/kg, po administered every 8 hrs for 4 weeks measured on week 8 postinfection radiographic analysis. It is filed as functional, organism-based. Details: dose 60 mg/kg.

In series [4] the test system is Staphylococcus aureus. Description: Antimicrobial activity against methicillin-resistant Staphylococcus aureus infected in New Zealand rabbit osteomyelitis model assessed as improvement in extent of bone remodeling at 60 mg/kg, po administered every 8 hrs for 4 weeks measured on week 8 postinfection radiographic analysis. Type of series: functional, organism-based. Further details: dose 60 mg/kg.

Series [5] deals with Oryctolagus cuniculus. Description: Toxicity in methicillin-resistant Staphylococcus aureus-infected New Zealand rabbit osteomyelitis model assessed as body weight at 60 mg/kg, po administered every 8 hrs for 4 weeks measured on week 6 postinfection (reference value: 2.43 +/- 0.15 kg). The following applies: in vivo.
Series [6] in a line: Cmax in New Zealand rabbit osteomyelitis model at 40 mg/kg, sc administered every 6 hrs for 4 days. It is filed as ADME, organism-based, Oryctolagus cuniculus. Details: dose 40 mg/kg, route subcutaneous. The conditions noted are these: in vivo.
The test system of series [7] is Staphylococcus aureus. Description: Antimicrobial activity against methicillin-resistant Staphylococcus aureus infected in New Zealand rabbit osteomyelitis model assessed as improvement in rate of bone reconstruction at 60 mg/kg, po administered every 8 hrs for 4 weeks measured on week 6 postinfection radiographic analysis. Type of series: functional, organism-based. Details: dose 60 mg/kg.

The subject of series [8] is Staphylococcus aureus. The series is described as follows: Antimicrobial activity against Staphylococcus aureus 168-1 isolated from osteomyelitis patient by broth macrodilution method. Type of series: functional.
Series [9] relates to Oryctolagus cuniculus. Description: Toxicity in methicillin-resistant Staphylococcus aureus-infected New Zealand rabbit osteomyelitis model assessed as body weight at 60 mg/kg, po administered every 8 hrs for 4 weeks measured on week 8 postinfection (reference value: 2.43 +/- 0.15 kg). The following applies: in vivo.
Series [10] is described as follows: AUC in New Zealand rabbit osteomyelitis model at 40 mg/kg, sc administered every 6 hrs for 4 days. Type of series: ADME, organism-based, Oryctolagus cuniculus. Further details: dose 40 mg/kg, route subcutaneous. The conditions noted are these: in vivo.
The test system of series [11] is Staphylococcus aureus. The series is described as follows: Antimicrobial activity against methicillin-resistant Staphylococcus aureus infected in New Zealand rabbit osteomyelitis model assessed as improvement in extent of bone remodeling at 60 mg/kg, po administered every 8 hrs for 4 weeks measured on week 2 postinfection radiographic analysis. Type of series: functional, organism-based. Details: dose 60 mg/kg.

Series [12] deals with Staphylococcus aureus. The series is described as follows: Antimicrobial activity against methicillin-resistant Staphylococcus aureus infected in New Zealand rabbit osteomyelitis model assessed as bacterial count per gram of tibial matrix at 60 mg/kg, po administered every 8 hrs for 4 weeks measured on week 8 postinfection (reference value: 1.04 +/- 2.63 CFU/g). Details: dose 60 mg/kg. It is filed as functional, organism-based.

Series [13] relates to Staphylococcus aureus. The series is described as follows: Antimicrobial activity against methicillin-resistant Staphylococcus aureus infected in New Zealand rabbit osteomyelitis model assessed as bacterial count per gram of tibial marrow at 60 mg/kg, po administered every 8 hrs for 4 weeks measured on week 8 postinfection (reference value: 1.04 +/- 2.63 CFU/g). It is filed as functional, organism-based. Further details: dose 60 mg/kg.

Series [14] in a line: AUC in methicillin-resistant Staphylococcus aureus-infected New Zealand rabbit osteomyelitis model at 60 mg/kg, po after 24 hrs. The following applies: in vivo. It is filed as ADME, organism-based, Oryctolagus cuniculus. Details: time < 24 hr, dose 60 mg/kg, route oral.
Series [15] has as its system Oryctolagus cuniculus. The series is described as follows: Toxicity in methicillin-resistant Staphylococcus aureus-infected New Zealand rabbit osteomyelitis model assessed as body weight at 60 mg/kg, po administered every 8 hrs for 4 weeks measured on week 4 postinfection (reference value: 2.43 +/- 0.15 kg). The following applies: in vivo.
In series [16] the test system is Oryctolagus cuniculus. Description: Cmin in New Zealand rabbit at 20 mg/kg, sc administered every 6 hrs for 4 days measured after 1 hr post first dose by RP-HPLC/MS/MS. Type of series: ADME, organism-based. Details: dose 20 mg/kg, route subcutaneous. The following applies: in vivo, 1 h.
Series [17] concerns Staphylococcus aureus. The series is described as follows: Antimicrobial activity against methicillin-resistant Staphylococcus aureus infected in New Zealand rabbit osteomyelitis model assessed as improvement in extent of bone remodeling at 30 mg/kg, sc administered every 12 hrs for 4 weeks measured on week 2 postinfection radiographic analysis. Type of series: functional, organism-based. Details: dose 30 mg/kg.

The subject of series [18] is Staphylococcus aureus. The series is described as follows: Antimicrobial activity against methicillin-resistant Staphylococcus aureus infected in New Zealand rabbit osteomyelitis model assessed as improvement in extent of bone remodeling at 30 mg/kg, sc administered every 12 hrs for 4 weeks measured on week 6 postinfection radiographic analysis. It is filed as functional, organism-based. Details: dose 30 mg/kg.

Series [19] is described as follows: Ratio of AUC to MIC in methicillin-resistant Staphylococcus aureus infected New Zealand rabbit model osteomyelitis at 30 mg/kg, sc administered every 12 hrs for 4 weeks. Type of series: functional. The following applies: route subcutaneous.
The test system of series [20] is Staphylococcus aureus. The series is described as follows: Antimicrobial activity against methicillin-resistant Staphylococcus aureus infected in New Zealand rabbit osteomyelitis model assessed as improvement in rate of bone reconstruction at 30 mg/kg, sc administered every 12 hrs for 4 weeks measured on week 6 postinfection radiographic analysis. Type of series: functional, organism-based. Details: dose 30 mg/kg.

Series [21] has as its system Staphylococcus aureus. Description: Antimicrobial activity against methicillin-resistant Staphylococcus aureus infected in New Zealand rabbit osteomyelitis model assessed as bacterial count per gram of tibial marrow at 30 mg/kg, sc administered every 12 hrs for 4 weeks measured on week 8 postinfection (reference value: 1.12 +/- 10^9 CFU/g). Type of series: functional. The following applies: route subcutaneous.

In series [22] the test system is Staphylococcus aureus. Description: Antimicrobial activity against methicillin-resistant Staphylococcus aureus infected in New Zealand rabbit osteomyelitis model assessed as improvement in rate of bone reconstruction at 30 mg/kg, sc administered every 12 hrs for 4 weeks measured on week 2 postinfection radiographic analysis. Further details: dose 30 mg/kg. It is filed as functional, organism-based.

Series [23] has as its system Staphylococcus aureus. Description: Antimicrobial activity against methicillin-resistant Staphylococcus aureus infected in New Zealand rabbit osteomyelitis model assessed as improvement in rate of bone reconstruction at 30 mg/kg, sc administered every 12 hrs for 4 weeks measured on week 8 postinfection radiographic analysis. It is filed as functional, organism-based. Further details: dose 30 mg/kg.

Series [24] deals with Staphylococcus aureus. Description: Antimicrobial activity against methicillin-resistant Staphylococcus aureus infected in New Zealand rabbit osteomyelitis model assessed as bacterial count per gram of tibial matrix at 30 mg/kg, sc administered every 12 hrs for 4 weeks measured on week 8 postinfection (reference value: 1.04 +/- 2.63 CFU/g). Type of series: functional. The following applies: route subcutaneous.

Data on two molecules can be found in ChEMBL document CHEMBL1255345, “Efficacies of ceftobiprole medocaril and comparators in a rabbit model of osteomyelitis due to methicillin-resistant Staphylococcus aureus” (Antimicrob Agents Chemother, 2008).

≈ marks a conversion by molar mass, not a printed value. Calls of active or inactive are those of the source. The rule behind the calls is not given here.

Consider `CC(=O)NC[C@H]1CN(c2ccc(N3CCOCC3)c(F)c2)C(=O)O1` [LINEZOLID], for which the outcome with Staphylococcus aureus [1], with Staphylococcus aureus [3], in the series on Staphylococcus aureus [4], with Staphylococcus aureus [7], with Staphylococcus aureus [11] and in the series on Staphylococcus aureus [12] was Active. Moreover, the result in the series on Staphylococcus aureus [13] was Active. Besides, the Activity in the series with Oryctolagus cuniculus [2] turned out to be 2.35 kg; in the series with Oryctolagus cuniculus [5], 2.36 kg; with Oryctolagus cuniculus [9], 2.42 kg; with Oryctolagus cuniculus [15], 2.44 kg. In addition, the highest level in series [6] (Cmax) was 27200 ng/mL. Also, in the series on Staphylococcus aureus [8], the MBC stood at 12.5 µg/mL (≈ 37.1 µM). In the series with Staphylococcus aureus [8], this molecule displayed an MIC of 1.56 µg/mL (≈ 4.62 µM). The molecule further had an AUC in [10] of 173 µg·h/mL. In [14], this molecule showed an AUC at 24 h of 334 µg·h/mL. The molecule further registered a CFU with Oryctolagus cuniculus [16] of 0.18 ×10⁷ /g.
In series [6], `CN[C@H](CC(C)C)C(=O)N[C@H]1C(=O)N[C@@H](CC(N)=O)C(=O)N[C@H]2C(=O)N[C@H]3C(=O)N[C@H](C(=O)N[C@H](C(=O)O)c4cc(O)cc(O)c4-c4cc3ccc4O)[C@H](O)c3ccc(c(Cl)c3)Oc3cc2cc(c3O[C@@H]2O[C@H](CO)[C@@H](O)[C@H](O)[C@H]2O[C@H]2C[C@](C)(N)[C@H](O)[C@H](C)O2)Oc2ccc(cc2Cl)[C@H]1O` [VANCOMYCIN] returned a Cmax of 6400 ng/mL. Also, the result with Staphylococcus aureus [17], in the series with Staphylococcus aureus [18], with Staphylococcus aureus [20], with Staphylococcus aureus [22] and in the series with Staphylococcus aureus [23] was Active. In the series with Staphylococcus aureus [8], this molecule yielded an MBC of 6.25 µg/mL (≈ 4.31 µM). The MIC in the series on Staphylococcus aureus [8] is 0.78 µg/mL (≈ 0.538 µM). For the same molecule, the AUC in series [10] turned out to be 58 µg·h/mL. Moreover, the RatioAUC/MIC in series [19] stood at 148. Further, the CFU in the series with Staphylococcus aureus [21] is on record as 0.64 ×10⁹ /g; in the series with Staphylococcus aureus [24], 0.84 ×10⁷ /g.

For orientation: Cmax means the peak of the concentration-time curve. In general, MBC refers to the lowest tested concentration that kills the bacteria rather than only halting them. Low readings indicate greater bactericidal potency, high ones weaker bactericidal potency. As a reminder, the MIC is the least concentration at which growth counts as inhibited. The AUC is concentration integrated over time. A high value points to more exposure.
